Here are results for three compounds from patent US8394986B2, “Phenoxiacetic acid derivatives” (AstraZeneca AB, priority 2003, dated 2013).

This test addresses T1, rhCRTh2 (Homo sapiens, UniProt Q9Y5Y4).
T1 construct: expressed in transfected cells; membranes prepared
T1 sequence (Q9Y5Y4 1-395): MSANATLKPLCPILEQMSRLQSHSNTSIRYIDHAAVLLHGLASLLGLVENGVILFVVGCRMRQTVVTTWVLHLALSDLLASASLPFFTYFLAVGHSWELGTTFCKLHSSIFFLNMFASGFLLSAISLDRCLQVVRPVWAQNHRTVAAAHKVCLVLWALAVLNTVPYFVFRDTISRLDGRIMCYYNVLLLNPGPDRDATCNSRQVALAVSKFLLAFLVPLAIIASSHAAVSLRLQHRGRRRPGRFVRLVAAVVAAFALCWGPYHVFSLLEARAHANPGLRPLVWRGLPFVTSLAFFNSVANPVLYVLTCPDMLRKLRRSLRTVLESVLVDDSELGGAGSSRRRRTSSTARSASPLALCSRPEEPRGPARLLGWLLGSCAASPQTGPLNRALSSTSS
In words: Ligand binding assay ([3H]PGD2 SPA, HEK cell membranes). The settings on record: [3H]PGD2 displacement, membranes of HEK cells expressing rhCRTh2/Ga16, SPA beads, 2 hours room temperature. The protocol:
[^3H]PGD2 was purchased from Perkin Elmer Life Sciences with a specific activity of 100-210 Ci/mmol All other chemicals were of analytical grade.
HEK cells expressing rhCRTh2/Ga16 were routinely maintained in DMEM containing 10% Foetal Bovine Serum (HyClone), 1 mg/ml geneticin, 2 mM L-glutamine and 1% non-essential amino acids. For the preparation of membranes, the adherent transfected HEKcells were grown to confluence in two layer tissue culture factories (Fisher, catalogue number TKT-170-070E). Maximal levels of receptor expression were induced by addition of […] sodium butyrate for the last 18 hours of culture. The adherent cells were washed once with phosphate buffered saline (PBS, 50 ml per cell factory) and detached by the addition of 50 ml per cell factory of ice-cold membrane homogenisation buffer [20 mM HEPES (pH 7.4), 0.1 mM dithiothreitol, 1 mM EDTA, 0.1 mM phenyl methyl sulphonyl fluoride and 100 μg/ml bacitracin]. […] The final pellet was re-suspended in 4 ml of membrane homogenisation buffer per cell factory used and the protein content determined Membranes were stored at −80° C. in suitable aliquots.
All assays were performed in Corning clear bottomed, white 96-well NBS plates (Fisher). […] (The optimum coating concentrations were determined for each batch of membranes) The beads were pelleted by centrifugation (800×g for 7 minutes at 4° C.), washed once with assay buffer (50 mM HEPES pH 7.4 containing 5 mM magnesium chloride) and finally re-suspended in assay buffer at a bead concentration of 10 mg/ml.
Each assay contained 20 μl of 6.25 nM [^3H]PGD2, 20 μl membrane saturated SPA beads both in assay buffer and 10 μl of compound solution or 13,14-dihydro-15-keto prostaglandin D2 (DK-PGD2, for determination of non-specific binding, Cayman chemical company). […] The assay plate was incubated at room temperature for 2 hours and counted on a Wallac Microbeta liquid scintillation counter (1 minute per well).

Structures are written as SMILES. Structures can show the parent of a compound that is named as a salt.

Regarding `CCS(=O)(=O)c1ccc(Cc2cc(C(F)(F)F)ccc2OCC(=O)O)cc1` [Example 4, [2-[4-(Ethylsulfonyl)benzyl]-4-(trifluoromethyl)phenoxy]acetic acid], the IC50 (usually the point on the concentration scale where inhibition reaches its midpoint) was 10 nM.

For `CCS(=O)(=O)c1ccc(Oc2cc(Cl)ccc2OCC(=O)O)cc1` [Example 5, [4-Chloro-2-[4-(ethylsulfonyl)phenoxy]phenoxy]acetic acid, sodium salt], the IC50 was 10 nM. This lies in the double-digit nanomolar range.

For the compound `CCS(=O)(=O)c1ccc(Oc2cc(F)ccc2OCC(=O)O)c(Cl)c1` [Example 43, {2-[2-Chloro-4-(ethylsulfonyl)phenoxy]-4-fluorophenoxy}acetic acid], the IC50 was 1 nM.
